Results published in US20230382889A1 (Volastra Therapeutics, Inc., priority 2022, published 2023).

Target: hKIF18A (1-374) (Homo sapiens (Human), UniProt Q8NI77)
Assay: Inhibition of KIF18A microtubule-dependent ATPase activity (ADP-Glo)
Assay type: biochemical
Details: 4 nM hKIF18A (1-374)
Protocol: Test compounds were plated in a 3× dilution scheme in a 384-well plate. Assay buffer: 80 mM PIPES (pH 6.9), 1 mM MgCl2, 75 mM KCl, 1 mM EGTA, 1 mM DTT, 0.01% BSA, 0.005% Tween-20, 1 μM Taxol in H2O. […] After incubation at room temperature for 30 min, 2.5 μL of microtubule mix was added [0.2 mg/mL pre-formed microtubules, 2.0 mM ATP in assay buffer], the plate was centrifuged for 30 s and then incubated at 28° C. for 60 min. 5 μL of Promega® ADP-Glo Max R1 was added, the plate was centrifuged for 30 s, and the mixture incubated for 4 h at room temperature. 10 μL of Promega® ADP-Glo Max R2 was added, the plate centrifuged for 30 s, and incubated for 60 min at room temperature. Luminescence was measured with an Envision plate reader, and % Inhibition was calculated for each well as: ([max−min]−[test−min])/[max−min]. IC50 values were calculated from concentration vs. % Inhibition data via a four-parameter variable slope model.

Sequence of hKIF18A (1-374) (Q8NI77 1-374): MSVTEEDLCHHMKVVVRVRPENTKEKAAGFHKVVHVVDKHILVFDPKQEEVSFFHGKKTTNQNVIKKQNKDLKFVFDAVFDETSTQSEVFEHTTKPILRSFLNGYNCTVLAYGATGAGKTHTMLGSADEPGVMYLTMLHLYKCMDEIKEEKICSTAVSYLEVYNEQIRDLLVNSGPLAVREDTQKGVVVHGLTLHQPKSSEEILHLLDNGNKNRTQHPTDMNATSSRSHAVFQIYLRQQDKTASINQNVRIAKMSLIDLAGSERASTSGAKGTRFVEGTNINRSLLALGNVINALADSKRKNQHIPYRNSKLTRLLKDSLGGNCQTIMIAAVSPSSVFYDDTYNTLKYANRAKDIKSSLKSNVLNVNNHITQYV

Row | Molecule | IC50 [µM]
1 | CS(=O)(=O)Nc1ccc(-c2ncc(-c3cccc(N4CC(F)(F)C4)n3)[nH]2)c(N2CCC3(CC2)CC3)c1 [Compound 33, N-(4-(5-(6-(3,3-difluoroazetidin-1-yl)pyridin-2-yl)-1H-imidazol-2-yl)-3-(6-azaspiro[2.5]octan-6-yl)phenyl)methanesulfonamide] | 0.036
2 | CS(=O)(=O)Nc1ccc(-n2cc(-c3cccc(N4CC(F)(F)C4)n3)nn2)c(N2CCC3(CC2)CC3)c1 [Compound 60, N-(4-(4-(6-(3,3-difluoroazetidin-1-yl)pyridin-2-yl)-1H-1,2,3-triazol-1-yl)-3-(6-azaspiro[2.5]octan-6-yl)phenyl)methanesulfonamide] | 0.0065
3 | CC(C)(C)NS(=O)(=O)c1cccc(-c2cn(-c3ccc(NS(C)(=O)=O)cc3N3CCC4(CC3)CC4)nn2)c1 [Compound 12, N-(tert-butyl)-3-(1-(4-(methylsulfonamido)-2-(6-azaspiro[2.5]octan-6-yl)phenyl)-1H-1,2,3-triazol-4-yl)benzenesulfonamide] | 0.0091
4 | CS(=O)(=O)Nc1ccc(-n2cc(-c3ccn(C4CCC(F)(F)CC4)n3)nn2)c(N2CCC3(CC2)CC3)c1 [Compound 41, N-(4-(4-(1-(4,4-difluorocyclohexyl)-1H-pyrazol-3-yl)-1H-1,2,3-triazol-1-yl)-3-(6-azaspiro[2.5]octan-6-yl)phenyl)methanesulfonamide] | 0.016
5 | N-(4-(4-(2-((3S,4R)-3,4-difluoropyrrolidin-1-yl)-6-methylpyrimidin-4-yl)-1H-1,2,3-triazol-1-yl)-3-(6-azaspiro[2.5]octan-6-yl)phenyl)-2-hydroxyethane-1-sulfonamide [Compound 107] | 0.016
6 | CS(=O)(=O)Nc1ccc(-n2cc(-c3cccc(CN4CCC(F)(F)CC4)n3)nn2)c(N2CCC3(CC2)CC3)c1 [Compound 23, N-(4-(4-(6-((4,4-difluoropiperidin-1-yl)methyl)pyridin-2-yl)-1H-1,2,3-triazol-1-yl)-3-(6-azaspiro[2.5]octan-6-yl)phenyl)methanesulfonamide] | 0.011
7 | Cc1cc(-c2cn(-c3ccc(NS(=O)(=O)CCO)cc3N3CCC4(CC3)CC4)nn2)nc(N2C[C@@H](F)[C@H](F)C2)c1 [Compound 115, N-(4-(4-(6-((3R,4R)-3,4-difluoropyrrolidin-1-yl)-4-methylpyridin-2-yl)-1H-1,2,3-triazol-1-yl)-3-(6-azaspiro[2.5]octan-6-yl)phenyl)-2-hydroxyethane-1-sulfonamide] | 0.044
8 | O=S(=O)(CCO)Nc1ccc(-n2cc(-c3ccn(C4CCC(F)(F)CC4)n3)nn2)c(N2CCC3(CC2)CC3)c1 [Compound 84, N-(4-(4-(1-(4,4-difluorocyclohexyl)-1H-pyrazol-3-yl)-1H-1,2,3-triazol-1-yl)-3-(6-azaspiro[2.5]octan-6-yl)phenyl)-2-hydroxyethane-1-sulfonamide] | 0.0082
9 | CS(=O)(=O)Nc1ccc(-n2cc(-c3cccc(N4CCC(F)(F)CC4)n3)nn2)c(N2CCC(C(F)(F)F)CC2)c1 [Compound 20, N-(4-(4-(6-(4,4-difluoropiperidin-1-yl)pyridin-2-yl)-1H-1,2,3-triazol-1-yl)-3-(4-(trifluoromethyl)piperidin-1-yl)phenyl)methanesulfonamide] | 0.023
10 | CCS(=O)(=O)Nc1ccc(-n2cc(-c3cccc(S(=O)(=O)NC(C)(C)C)c3)nn2)c(N2CCC(C(F)F)CC2)c1 [Compound 118, N-(tert-butyl)-3-(1-(2-(4-(difluoromethyl)piperidin-1-yl)-4-(ethylsulfonamido)phenyl)-1H-1,2,3-triazol-4-yl)benzenesulfonamide] | 0.015
11 | CS(=O)(=O)Nc1ccc(-c2nnc(-c3cccc4c3OCCC4)[nH]2)c(N2CCC3(CC2)CC3)c1 [Compound 3, N-(4-(5-(chroman-8-yl)-4H-1,2,4-triazol-3-yl)-3-(6-azaspiro[2.5]octan-6-yl)phenyl)methanesulfonamide] | 0.28
12 | CC1CCN(c2cc(NS(C)(=O)=O)ccc2-n2cc(-c3cccc(N4CCC(F)(F)CC4)n3)nn2)CC1 [Compound 18, N-(4-(4-(6-(4,4-difluoropiperidin-1-yl)pyridin-2-yl)-1H-1,2,3-triazol-1-yl)-3-(4-methylpiperidin-1-yl)phenyl)methanesulfonamide] | 0.0087
13 | O=S(=O)(CCO)Nc1ccc(-n2cc(-c3ccn(C4CCCC4)n3)nn2)c(N2CCC3(CC2)CC3)c1 [Compound 83, N-(4-(4-(1-cyclopentyl-1H-pyrazol-3-yl)-1H-1,2,3-triazol-1-yl)-3-(6-azaspiro[2.5]octan-6-yl)phenyl)-2-hydroxyethane-1-sulfonamide] | 0.01
14 | O=S(=O)(CCO)Nc1ccc(-c2cn(-c3ccc(F)c(S(=O)(=O)N4CC(F)(F)C4)c3)nn2)c(N2CCC3(CC2)CC3)n1 [Compound 111, N-(5-(1-(3-((3,3-difluoroazetidin-1-yl)sulfonyl)-4-fluorophenyl)-1H-1,2,3-triazol-4-yl)-6-(6-azaspiro[2.5]octan-6-yl)pyridin-2-yl)-2-hydroxyethane-1-sulfonamide] | 0.068
15 | O=C(c1ccc(-c2cn(-c3ccc(NS(=O)(=O)CCO)cc3N3CCC4(CC3)CC4)nn2)o1)C1CCCC1 [Compound 92, N-(4-(4-(5-(cyclopentanecarbonyl)furan-2-yl)-1H-1,2,3-triazol-1-yl)-3-(6-azaspiro[2.5]octan-6-yl)phenyl)-2-hydroxyethane-1-sulfonamide] | 0.0096
16 | CCS(=O)(=O)Nc1ccc(-n2cc(-c3ccc(F)c(S(=O)(=O)NC(C)(C)C)c3)nn2)c(N2CCC3(CC2)CC3)c1 [Compound 120, N-(tert-butyl)-5-(1-(4-(ethylsulfonamido)-2-(6-azaspiro[2.5]octan-6-yl)phenyl)-1H-1,2,3-triazol-4-yl)-2-fluorobenzenesulfonamide] | 0.019

Other lines, results leading:

Row | IC50 [µM] | Molecule
17 | 0.0055 | CC1CCN(c2cc(NS(=O)(=O)CCO)ccc2-n2cc(-c3cncc(N4CCC(F)(F)CC4)n3)nn2)CC1 [Compound 143, N-(4-(4-(6-(4,4-difluoropiperidin-1-yl)pyrazin-2-yl)-1H-1,2,3-triazol-1-yl)-3-(4-methylpiperidin-1-yl)phenyl)-2-hydroxyethane-1-sulfonamide]
18 | 0.017 | CC1CCN(c2cc(NS(=O)(=O)CCO)ccc2-c2cn(-c3ccc(F)c(N4CCC(F)(F)CC4)n3)nn2)CC1 [Compound 141, N-(4-(1-(6-(4,4-difluoropiperidin-1-yl)-5-fluoropyridin-2-yl)-1H-1,2,3-triazol-4-yl)-3-(4-methylpiperidin-1-yl)phenyl)-2-hydroxyethane-1-sulfonamide]
19 | 0.0063 | CCS(=O)(=O)Nc1ccc(-n2cc(-c3cncc(N4CCC(F)(F)CC4)n3)nn2)c(N2CCC3(CC2)CC3)c1 [Compound 137, N-(4-(4-(6-(4,4-difluoropiperidin-1-yl)pyrazin-2-yl)-1H-1,2,3-triazol-1-yl)-3-(6-azaspiro[2.5]octan-6-yl)phenyl)ethanesulfonamide]
20 | 0.021 | CS(=O)(=O)Nc1ccc(-n2cc(-c3ccc(F)c(N4CCC(F)(F)CC4)n3)nn2)c(N2CCC3(CC2)CC3)c1 [Compound 149, N-(4-(4-(6-(4,4-difluoropiperidin-1-yl)-5-fluoropyridin-2-yl)-1H-1,2,3-triazol-1-yl)-3-(6-azaspiro[2.5]octan-6-yl)phenyl)methanesulfonamide]
21 | 0.0065 | O=S(=O)(CCO)Nc1ccc(-n2cc(-c3ccc(F)c(N4CCCCC4)n3)nn2)c(N2CCC3(CC2)CC3)c1 [Compound 136, N-(4-(4-(5-fluoro-6-(piperidin-1-yl)pyridin-2-yl)-1H-1,2,3-triazol-1-yl)-3-(6-azaspiro[2.5]octan-6-yl)phenyl)-2-hydroxyethane-1-sulfonamide]
22 | 0.0044 | O=S(=O)(CCO)Nc1ccc(-n2cc(-c3cc(CO)nc(N4CCC(F)(F)CC4)n3)nn2)c(N2CCC3(CC2)CC3)c1 [Compound 160, N-(4-(4-(2-(4,4-difluoropiperidin-1-yl)-6-(hydroxymethyl)pyrimidin-4-yl)-1H-1,2,3-triazol-1-yl)-3-(6-azaspiro[2.5]octan-6-yl)phenyl)-2-hydroxyethane-1-sulfonamide]
23 | 0.071 | O=S(=O)(CCO)Nc1ccc(-n2cc(-c3ccc(C4CCCC4)o3)nn2)c(N2CCC3(CC2)CC3)c1 [Compound 126, N-(4-(4-(5-cyclopentylfuran-2-yl)-1H-1,2,3-triazol-1-yl)-3-(6-azaspiro[2.5]octan-6-yl)phenyl)-2-hydroxyethane-1-sulfonamide]
24 | 0.014 | O=S(=O)(CCO)Nc1ccc(-n2cc(-c3nc(C4=CCC(F)(F)CC4)ccc3F)nn2)c(N2CCC3(CC2)CC3)c1 [Compound 159, N-(4-(4-(6-(4,4-difluorocyclohex-1-en-1-yl)-3-fluoropyridin-2-yl)-1H-1,2,3-triazol-1-yl)-3-(6-azaspiro[2.5]octan-6-yl)phenyl)-2-hydroxyethane-1-sulfonamide]
25 | 0.016 | O=S(=O)(CCO)Nc1ccc(-n2cc(-c3ccc(F)c(N4CC5CC5C4)n3)nn2)c(N2CCC3(CC2)CC3)c1 (centres unmarked) [Compound 153, N-(4-(4-(6-(3-azabicyclo[3.1.0]hexan-3-yl)-5-fluoropyridin-2-yl)-1H-1,2,3-triazol-1-yl)-3-(6-azaspiro[2.5]octan-6-yl)phenyl)-2-hydroxyethane-1-sulfonamide]
26 | 0.098 | CS(=O)(=O)Nc1ccc(-n2cc(-c3cccc4c3OC3(CCCCC3)O4)nn2)c(N2CCC3(CC2)CC3)c1 [Compound 128, N-(3-(6-azaspiro[2.5]octan-6-yl)-4-(4-(spiro[benzo[d][1,3]dioxole-2,1′-cyclohexan]-4-yl)-1H-1,2,3-triazol-1-yl)phenyl)methanesulfonamide]
